From patent US12508265B2, “Methods and compositions for reducing radiation induced toxicity” (Tosk, Inc., priority 2018, dated 2025)
Like-named read-outs stand apart in the source and are kept apart here.

Legend:
[1] = test system: surviving regenerating intestinal crypts; assay: Small intestinal crypt survival in murine total-body irradiation (TBI) model of intestinal mucositis; assay type: in vivo, Mouse (Mus musculus) C57BL6; conditions: 12 Gy
From the text: The aim of the study whose results are provided in FIG. 2-6 was to determine the effect of TK-112690 on small intestinal crypt survival, in a murine total-body irradiation (TBI) model of intestinal mucositis.
• Animal Species: Mouse (Mus musculus) • Strain/substrain: C57BL6 (negative for Klebsiella oxytoca) • Source: Jackson Laboratories, MP-14, Bar Harbour, Me 04609, USA • Total animals: 40 males plus 5 spares • Body weight range: 18 to 25 g at start of treatment • Animal ages: 10 to 12 weeks at start of treatment • Housing: Animals were individually housed in rodent polycarbonated bins with bedding (irradiated Teklad sani chips) equipped with water bottles. Following group assignment, all cages were clearly labeled with a color-coded cage card indicating at least the study number and animal number. • Animal Identification: Each animal was individually identified using a permanent marker. • Group Animal Numbers: Each animal was given a four-number identification code. The first number corresponds to the respective dose group (1-4). The second number refers to whether the animal is the original animal, for instance the number 0, or a replacement, for instance 1, The third and fourth numbers identify the animal's rank within each group. • Room Environment: The animal room environment was set to maintain a temperature of 21±3° C., a relative humidity of 50±20%; and a light dark cycle of 12 hours light/12 hours dark, except during Study Plan-designated procedures. • Diet/Water: A standard certified commercial chow (Envigo Teklad Certified Irradiated Global Rodent Diet #2918C) was provided to the animals ad libitum except during designated procedures. Treats or fruits/vegetables were provided as part of the animal enrichment program. Concentrations of the contaminants (e.g., heavy metals, aflatoxin, organophosphate and chlorinated hydrocarbons) were routinely measured by the manufacturers. Acidified (pH between 2.75 and 3.25) municipal tap water (which had been exposed to ultraviolet light and purified by reverse osmosis) was provided to all animals ad libitum, except during designated procedures, via water bottles. Water bottles were changed at least every 3 days prior to irradiation and every 2 days after irradiation. Acidified water was changed every day after irradiation. During transportation and irradiation, animals were provided with food and water gel packs. Animals received water gel packs at least 2 days before transportation to acclimate to this type of hydration supplement and this procedure continued until necropsy. In addition, wetted food was provided to the animals on the bottom of the bins from Day 1 to the day of necropsy. • Acclimation: An acclimation period of at least 14 days was allowed between receipt of the animals and the start of dosing to accustom the animals to the laboratory environment. • Animal Assignment: During the acclimation period, animals were separately assigned to dose groups by a randomizing stratification system based on body weights. For logistical reasons, the animals were assigned to replicate subgroups, which may initiate dosing on different days.
The test item and reference item/vehicle are administered by intraperitoneal injection (ip) or oral gavage (po) 1.5 to 2 hour prior and 4 hours post irradiation and then twice daily (12 hours apart) for 4 consecutive days (Days 2 to 5), as shown below: […]

[2] = assay type: in vivo; conditions: TK-112690 60 mg/kg ip or 240 mg/kg po bid plus uridine 60 mg/kg vs PBS; 12 Gy; ip and po combined; p=0.012
From the text: • Animal Species: Mouse (Mus musculus) • Strain/substrain: C57BL6 (negative for Klebsiella oxytoca) • Source: Jackson Laboratories, MP-14, Bar Harbour, Me 04609, USA • Total animals: 40 males plus 5 spares • Body weight range: 18 to 25 g at start of treatment • Animal ages: 10 to 12 weeks at start of treatment • Housing: Animals were individually housed in rodent polycarbonated bins with bedding (irradiated Teklad sani chips) equipped with water bottles. Following group assignment, all cages were clearly labeled with a color-coded cage card indicating at least the study number and animal number. • Animal Identification: Each animal was individually identified using a permanent marker. • Group Animal Numbers: Each animal was given a four-number identification code. The first number corresponds to the respective dose group (1-4). […] Concentrations of the contaminants (e.g., heavy metals, aflatoxin, organophosphate and chlorinated hydrocarbons) were routinely measured by the manufacturers. […]
Mortality checks were recorded concomitantly with the cage-side observations (see below for clinical signs), during all phases of the study. […]

[3] = Plasma concentration profile over 8 hours in mice (LC/MS); assay type: in vivo, CD-1 Female Mice; conditions: mouse plasma; for half-life: female, CD-1, read-out: Elimination half-life (converted)
Experimental: FIG. 3 depicts a set of data expressing plasma concentration profile over 8 hours in mice administered either 60 mg/kg of TK-112690 ip or 240 mg/kg po by gavage. Plasma samples from 3 animals/timepoint were analyzed. CD-1 Female Mice (n=3) were dosed with either 60 (ip) or 240 (po) mg/kg TK-112690 in PBS. Blood samples were obtained at the designated timepoints, and the samples analyzed for drug using LC/MS.

Cc1cn2c(nc1=O)O[C@H]1[C@H](O)[C@@H](CO)O[C@H]12 [TK-112690]
number of surviving intestinal crypts in the jejunum, Z scores ([1]; TK-112690 60 mg/kg ip bid plus uridine 60 mg/kg vs PBS, p=0.029): ameliorates the mucosal damage in the jejunum
number of surviving intestinal crypts in the jejunum, Z scores ([1]; TK-112690 60 mg/kg ip or 240 mg/kg po bid (combined) plus uridine 60 mg/kg vs PBS, p=0.007): minimizes the mucosal damage in the jejunum
number of surviving intestinal crypts (jejunum, duodenum, ileum), Z scores ([1]; TK-112690 60 mg/kg ip or 240 mg/kg po bid plus uridine 60 mg/kg vs PBS, p=0.03): lessens the mucosal damage associated with radiation treatment
number of surviving intestinal crypts in the duodenum, Z scores ([1]; TK-112690 60 mg/kg ip or 240 mg/kg po bid plus uridine 60 mg/kg vs PBS, p=0.046): ameliorates the mucosal damage in the duodenum
number of surviving intestinal crypts in the jejunum, Z scores ([1]; TK-112690 240 mg/kg po bid plus uridine 60 mg/kg vs PBS, p=0.041): ameliorates the mucosal damage in the jejunum
difference in body weight between pre-treatment and day 6 (Z scores) [2]: modest, highly statistically significant (p=0.012) protection from weight loss
AUC0→Last ([3]; 60 mg/kg ip in PBS): Approximately 30 (micrograms/mL)*hour
AUC0→Last ([3]; 240 mg/kg po by gavage in PBS): ~40 (micrograms/mL)*hour
half-life ([3]; 60 mg/kg ip in PBS): ~2.5 h
half-life ([3]; 240 mg/kg po by gavage in PBS): ~2.5 h
